{
  "source": "paper PMC8705818",
  "about": "“Experimental Characterization of the Interaction between the N-Terminal SH3 Domain of Crkl and C3G” (International Journal of Molecular Sciences, 2021)",
  "biological_target": "T1, N-SH3 D141A (Crkl) (Homo sapiens, UniProt P46109, D141A)",
  "T1 construct": "The construct encoding the N-SH3 domain of Crkl was subcloned in a pET28b+ plasmid vector; His-tag; made in house; host or cells: E. coli BL21",
  "T1 sequence (P46109 123-183 D141A limits assumed)": "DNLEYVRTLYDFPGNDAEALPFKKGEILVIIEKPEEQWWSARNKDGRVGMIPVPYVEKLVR",
  "experiment": "Stopped-flow displacement, N-SH3 D141A:dansyl-C3G277–296 complex",
  "type": "binding",
  "details": "Hepes 50 mM pH 7.0 + 20% w/v sucrose, 10 °C",
  "description": "To further investigate this aspect, we resorted to performing displacement experiments, targeted to the direct calculation of microscopic dissociation rate constant koff. […] To test this and to slow down the diffusion of molecules, we repeated the experiment increasing the viscosity of the solution adding 20% w/v sucrose to the buffer Hepes 50 mM pH 7.0. Although the trace was satisfactorily fitted with a single-exponential equation, the koff calculated is 800 ± 30 s^−1, a value that is far beyond the resolution capability of the stopped-flow, a consistent part of the reaction occurring in the dead time of the instrument. Based on the calculated affinity of D141A variant for C3G in the absence of sucrose, this dramatic increase in koff might be accompanied by a strong increase in kon.\nKinetic binding experiments were performed on a single-mixing SX-18 stopped-flow instrument (Applied Photophysics), by mixing a constant concentration (0.5 μM) of C3G dansylated versus increasing concentrations of N-SH3 at 10 °C. Ionic strength dependence of wt N-SH3 was performed with concentrations ranging from 1 to 5 µM for 0 M NaCl condition and from 0.5 to 5 µM for 0.15 M, 0.3 M, 0.5 M and 1 M NaCl, buffer Hepes 50 mM pH 7.0. The excitation wavelength was 280 nm, and fluorescence was collected using a 455 nm cut-off filter. […]",
  "note": "Peptide text beside a SMILES is read from it. * marks the point of attachment. Dansyl = CN(C)c1cccc2c(S(=O)(=O)*)cccc12",
  "data": [
    {"smiles": "CC(C)C[C@H](NC(=O)[C@H](C)NC(=O)[C@@H]1CCCN1C(=O)[C@@H]1CCCN1C(=O)[C@@H]1CCCN1C(=O)[C@H](CO)NC(=O)[C@H](CC(N)=O)NC(=O)[C@H](CC(=O)O)NC(=O)[C@@H](NC(=O)[C@@H](NS(=O)(=O)c1cccc2c(N(C)C)cccc12)C(C)C)C(C)C)C(=O)N1CCC[C@H]1C(=O)N1CCC[C@H]1C(=O)N[C@@H](CCCCN)C(=O)N[C@@H](CCCCN)C(=O)N[C@@H](CCCNC(=N)N)C(=O)N[C@@H](CCC(N)=O)C(=O)N[C@@H](CO)C(=O)N[C@@H](C)C(=O)N1CCC[C@H]1C(=O)N[C@@H](CO)C(=O)O", "note": "[dansyl-C3G277–296] (Dansyl-VVDNSPPPALPPKKRQSAPS-OH)", "values": [
      {"measurement": "koff", "value": "800 ± 30", "unit": "s⁻¹"}
    ]}
  ]
}
